Source: patent publication EP0449955B1, “SYNTHETIC HIV-LIKE PEPTIDES, THEIR COMPOSITIONS AND USES” (CLARITY TECHNOLOGIES INCORPORATED, priority 1988, dated 1996)
“Also recorded” adds a separate entry of the source.

Experiments:
antibody to HIV-1 = test: EIA of p24 synthetic peptide-BSA conjugates with serum pools and individual sera; assay type: binding, human
Protocol: (§1) The free peptides or peptide-protein conjugates of Figures 1-13 were initially screened for immunoreactivity by coating each well of polystyrene microtiter EIA plates (Costar, Cambridge, Massachusetts, U.S.A.) with 0.2 ml amounts of concentrations of 5-50 micrograms/ml peptide in Tris buffer, 10 mM, pH 8.0, at 4°C overnight. Peptides or peptide-protein conjugates showing immunoreactivity by EIA were then further diluted for coating to determine the minimal concentrations required that allowed maximal immunoreactivity with antibodies to HIV, and minimal nonspecific reactivity with normal sera. The EIA tests were performed as follows: The coating solution was removed from each well and the wells were blocked at 37°C for 30 minutes with a solution of 50 mM phosphate, 100 mM NaCl, pH 7.4, 1% BSA, 0.5% gelatin. The wells were then aspirated dry with a microtiter plate washer and washed 3 times with a solution of 50 mM phosphate, 100 mM NaCl, .05% Tween 20, (trademark) pH 7.4 (PBST). A 1:101 dilution (in PBST with 1% BSA, 1% NRS) of the primate serum to be tested was then added as 0.2 ml to each washed well and the plates were incubated at 37°C for 30 minutes. The plates were then washed x 3 with PBST, and 0.2 ml amounts of a 1:2000 dilution of goat anti-human (GAH) peroxidase enzyme conjugate (Organon Teknika, Cappel, Melvern, Pennsylvania, U.S.A.) that recognized human IgG, IgA, and IgM were added to each well, and the plates were incubated for 30 minutes at 37°C. The plates were then washed x 3 with PBST and incubated with 0.2 ml/well substrate consisting of 0,1M citric acid pH 5.2, 0.1 mg/ml o-phenylene diamine, 0.01% H₂O₂, at room temperature in the dark for 10 minutes. Reactions were stopped with 50 microliters of 4N H₂SO₄, and the color development was quantitated in a Multiscan plate reader at A₄₉₂. In each series of experiments positive and negative controls were included, and all tests were done in duplicate or quadruplicate. Most peptides and peptide conjugates were initially screened against a 1:101 dilution of pools of HIV positive or HIV negative sera, and the same serum pool was used to allow quantitative comparison of immunoreactivity of different free peptides or peptide-protein conjugates.
Figure 8 illustrates the immunoreactivity and AA sequences of synthetic peptides of the p24 protein of HIV-1, when conjugated to BSA via their C-termini using SMCC, and reacted with a pool of approximately 50 sera from persons containing antibody to HIV-1, or with a pool of approximately 30 sera from individuals devoid of antibody to HIV-1. […] No negative sera (0/85, 0%) reacted, and 17 positive sera (17/98, 17%) were immunoreactive. It has been reported that individuals lose antibodies to p24 during the course of progression from asymptomatic infection to clinical disease and AIDS (Franchini et al., Blood 69:(2):437-441, 1987, and Weber et al., Lancet i:119-122, 1987), which may explain the lower frequency of antibodies to this peptide in the sera tested.

antibodies to HIV-1 [1] = test: EIA of HIV-1 gp41 peptide-protein conjugates against serum pools; assay type: binding, human; conditions: peptide conjugated via C-terminus to BSA (SMCC), coated at 10 micrograms peptide/ml; 1:101 dilution of HIV+ serum pool; Figure 1
Protocol: as §1
The peptides in Figures 1 and 5 were synthesized as described in Example 1 and conjugated to KLH or BSA as described in Example 2. These peptide-protein conjugates were coated to polystyrene microtiter plates all at a concentration 10 micrograms peptide/ml and evaluated for immunoreactivity as described in Example 3, using a 1:101 dilution of a pool of sera (HIV+/SIV+, respectively) containing antibodies to HIV-1 (Figure 1) or to HIV-2 (Figure 5), as well as pooled serum (HIV-/SIV-, respectively) containing no antibodies to HIV-1 or HIV-2. […] Since sera from patients infected with HIV-2 are relatively unavailable in the United States, the immunoreactivity of HIV-2 synthetic peptides was assessed using serum from macaques infected with SIV, obtained from the University of Washington Primate Center, Seattle, Washington, U.S.A. The AA sequence of SIV is nearly identical to HIV-2 in the region of the peptides synthesized (see Myers et al., Human Retroviruses and AIDS, 1988. A compilation of nucleic acid and amino acid sequences. Los Alamos National Laboratory, Los Alamos, New Mexico, 87545, USA).

SIV/HIV-2 antibodies = test: EIA of HIV-2 gp32 peptide-protein conjugates against macaque serum pools; assay type: binding; conditions: peptide conjugated via C-terminus to BSA (SMCC), coated at 10 micrograms peptide/ml; 1:101 dilution of SIV+ macaque serum pool; Figure 5
Protocol: The free peptides or peptide-protein conjugates of Figures 1-13 were initially screened for immunoreactivity by coating each well of polystyrene microtiter EIA plates (Costar, Cambridge, Massachusetts, U.S.A.) with 0.2 ml amounts of concentrations of 5-50 micrograms/ml peptide in Tris buffer, 10 mM, pH 8.0, at 4°C overnight. Peptides or peptide-protein conjugates showing immunoreactivity by EIA were then further diluted for coating to determine the minimal concentrations required that allowed maximal immunoreactivity with antibodies to HIV, and minimal nonspecific reactivity with normal sera. The EIA tests were performed as follows: The coating solution was removed from each well and the wells were blocked at 37°C for 30 minutes with a solution of 50 mM phosphate, 100 mM NaCl, pH 7.4, 1% BSA, 0.5% gelatin. The wells were then aspirated dry with a microtiter plate washer and washed 3 times with a solution of 50 mM phosphate, 100 mM NaCl, .05% Tween 20, (trademark) pH 7.4 (PBST). […] Reactions were stopped with 50 microliters of 4N H₂SO₄, and the color development was quantitated in a Multiscan plate reader at A₄₉₂. […] Most peptides and peptide conjugates were initially screened against a 1:101 dilution of pools of HIV positive or HIV negative sera, and the same serum pool was used to allow quantitative comparison of immunoreactivity of different free peptides or peptide-protein conjugates.
The peptides in Figures 1 and 5 were synthesized as described in Example 1 and conjugated to KLH or BSA as described in Example 2. These peptide-protein conjugates were coated to polystyrene microtiter plates all at a concentration 10 micrograms peptide/ml and evaluated for immunoreactivity as described in Example 3, using a 1:101 dilution of a pool of sera (HIV+/SIV+, respectively) containing antibodies to HIV-1 (Figure 1) or to HIV-2 (Figure 5), as well as pooled serum (HIV-/SIV-, respectively) containing no antibodies to HIV-1 or HIV-2. […]

antibodies to HIV-2 = test: EIA of HIV-2 peptide-BSA conjugates with macaque sera; assay type: binding; conditions: macaque sera containing or not containing antibodies to HIV-2, Figure 7
Protocol: The synthetic peptides of Figures 1-8 were reduced with 10mM DTT, or with immobilized DTT (Reductacryl, Calbiochem, San Diego, California, U.S.A., 10 mg Reductacryl per mg peptide) overnight at 4°C, pH8 in 10mM borate or other buffers depending upon peptide solubility, with gentle mixing. KLH was dissolved at a concentration of 10-30 mg/ml in 10 mM phosphate buffer pH 7.2., and BSA was dissolved at a concentration of 20-80 mg/ml for treatment with heterobifunctional linkers MBS (m-Maleimidobenzoyl-N-hydroxysuccinimide ester), SPDP [N-Succinimidyl 3-(2 pyridyldithio)propionate], or Sulfo-SMCC [Sulfo-Succinimidyl 4(N-maleimidomethyl)-cyclohexane-1-carboxylate]. The heterobifunctional linkers were added to the protein solutions in a molar excess of linker to BSA of 100, or of linker to KLH of 1000. MBS was dissolved in DMF at 10mg/ml, SPDP was dissolved in absolute ethanol at 10mg/ml and each of these was added dropwise with mixing into the protein solution, whereas the Sulfo-SMCC dry powder was dissolved into the protein solution. Each protein-linker mixture was reacted at room temperature for 15 minutes to 1 hour and then free linker was separated from BSA-linker or KLH-linker by gel chromatography with Sephadex G25 using 50mM phosphate, pH 6 for KLH-MBS, 10mM acetate, 100 mM Nacl, pH 4.6 for BSA-SPDP, or 100 mM phosphate, 1 mM EDTA, pH 6.5 for BSA-SMCC. The reduced peptides were separated from DTT by Sephadex G10 column chromatography when soluble DTT was used, or by centrifugation followed by filtration through a 0.22 micron filter when Reductacryl was used. Reduced peptides were combined with linker treated KLH or BSA in molar ratios of 100-1000 peptide/KLH-MBS, 1-50 peptide/BSA-SMCC, and 0.1-10 peptide/BSA-SPDP. Each reduced peptide was added to the linker-treated protein with mixing, overlayed with N₂, and then mixed gently at room temperature for one hour, and then overnight at 4°C. The SMCC-BSA conjugates were further treated with a 1 mM final concentration of mercaptoethylamine for 4 hours, and then dialyzed overnight against 100 volumes of buffer (20mM phosphate, 1 mM EDTA, 0.05% sodium azide, pH 6.5) at 4°C. All other conjugates were adjusted to a final concentration of sodium azide of 0.05%. Optimal molar ratios of peptide/protein for the conjugates were determined by solubility and antigenicity (as evaluated by EIA).
The free peptides or peptide-protein conjugates of Figures 1-13 were initially screened for immunoreactivity by coating each well of polystyrene microtiter EIA plates (Costar, Cambridge, Massachusetts, U.S.A.) with 0.2 ml amounts of concentrations of 5-50 micrograms/ml peptide in Tris buffer, 10 mM, pH 8.0, at 4°C overnight. […]

antibodies to HIV-1 [2] = test: EIA of peptide-carrier conjugates with individual human sera; assay type: binding; conditions: BSA-SMCC conjugate
Protocol: as §1
Figure 10A illustrates the immunoreactivity of synthetic natural peptides 2S06 and 2S09 (Figure 1) when conjugated via their C-terminal GC spacer to KLH using the heterobifunctional linker MBS. […] However, the immunoreactivity of many of the positives was low (A₄₉₂ less than 1.0), and some of the negative samples had A₄₉₂ values slightly above 0.20, resulting in minimal discrimination between negatives and positives. This poor discrimination led to a search for an improved carrier protein and/or linker.
Figure 10B illustrates the reactivity of synthetic natural peptide IWGCSGKLICTTAVPGC (2S09) when conjugated through its C-terminus to BSA via the heterobifunctional linker SMCC. […] Improvement in assay performance as compared with results of Example 5A is noted with respect to negative samples having lower A₄₉₂ values, and most positive samples having higher A₄₉₂ values. […] Because of the possibility that some of the low responsiveness might be due to antigenic differences of genetic variants in the region of this epitope, as reported for HIV isolates from Zaire (Gnann et al., Science 237:1346-1349, 1987), the natural sequence variant peptide 5S67 (Figure 3) was synthesized, chemically linked to BSA with SMCC, and tested against the same sera, plus one additional negative serum sample (Figure 10C). […] This instigated a search for unnatural sequence variants of peptide 2S09 that would retain high immunoreactivity with most sera that contained antibodies to HIV-1, and yet retain low reactivity with sera devoid of antibodies to HIV. […]

[3] = BSA-SMCC conjugate, 85 individual sera without antibodies to HIV-1
[4] = BSA-SMCC conjugate, 98 individual sera with antibodies to HIV-1

Row | Sequence | immunoreactivity with HIV-1 antibodies (antibodies to HIV-1 [1]) | further results
1 | ALGPAATLEEMMTACGC [5S94] | – | negative sera that reacted (antibody to HIV-1; [3]): 0/85; negative sera that reacted (percent) (antibody to HIV-1; [3]): 0%; positive sera immunoreactive (antibody to HIV-1; [4]): 17/98; positive sera immunoreactive (percent) (antibody to HIV-1; [4]): 17%; immunoreactivity with serum pools (antibody to HIV-1; BSA-SMCC conjugates, pool of approximately 50 positive sera and pool of approximately 30 negative sera, Figure 8): proved to be the immunoreactive peptide; also recorded: significant immunoreactivity
2 | AVERYLKDQQLLGC [2S01] | significantly less immunoreactive | –
3 | CSGKLICTTAVPWNAGC [3S51] | higher reactivity; also recorded: Significant immunoreactivity | –
4 | DQARLNSWGCAFRQVC [2S24] | – | immunoreactivity with SIV/HIV-2 antibodies (SIV/HIV-2 antibodies): maximally immunoreactive; also recorded: Significant immunoreactivity; also recorded: best immunoreactivity; discrimination of positive from negative samples (antibodies to HIV-2): most favorable performances
5 | ERYLKDQQLLGIIVGC [2S02] | significantly less immunoreactive | –
6 | GCSGKLICTTAVPWNGC [2S11] | higher reactivity; also recorded: Significant immunoreactivity | –
7 | GKLICTTAVPWNASWGC [3S55] | higher reactivity; also recorded: Significant immunoreactivity | –
8 | IKQLQARILAVERYLKDQQ [4S24, reference compound] | lower immunoreactivity | –
9 | IWGCSGKMICTTAVPGC [5S76] | – | immunoreactivity with positive sera (antibodies to HIV-1 [2]; 98 sera containing antibodies to HIV-1, Figures 10B, 10C, 11): strong immunoreactivity with some sera that reacted weakly in Figure 10B; positive samples giving A492 less than 1.0 (antibodies to HIV-1 [2]; of 98 positive sera, Figure 11B): Five
10 | KDQQLLGIWGCSGKLGC [2S04] | Significant immunoreactivity | –
11 | KLICTTAVPWNASWSGC [2S15] | higher reactivity; also recorded: Significant immunoreactivity | –
12 | LGIWGCSGKLICTTAGC [2S07] | Significant immunoreactivity | –
13 | LLGIWGCSGKLICTTGC [2S06] | Significant immunoreactivity | –
14 | QQLLGIWGCSGKLICGC [3S36] | Significant immunoreactivity | –
15 | RILAVERYLKDQQLLGIWGCSGKLIC [4S25, reference compound] | lower immunoreactivity; also recorded: lower or comparable immunoreactivity; also recorded: Significant immunoreactivity | –
16 | SGKLICTTAVPWNASGC [2S13] | higher reactivity; also recorded: Significant immunoreactivity | –
17 | SWGCAFRQVCHTSVPGC [5S86] | – | discrimination of positive from negative samples (antibodies to HIV-2): most favorable performances
18 | SWGCAFRQVCHTTVPGC [2S27] | – | immunoreactivity with SIV/HIV-2 antibodies (SIV/HIV-2 antibodies): maximally immunoreactive; also recorded: Significant immunoreactivity; also recorded: best immunoreactivity; discrimination of positive from negative samples (antibodies to HIV-2): most favorable performances
19 | YLKDQQLLGIWGCSGC [2S03] | significantly less immunoreactive | –
